This assay concerns T1, LkCPR; NADPH-dependent cytochrome P450 reductase from Liza klunzingeri liver.
T1 construct: gene POR; native, purified from liver microsomes (detergent-solubilised; DEAE-Sepharose twice, 2',5'-ADP Sepharose 4B); about 75 kDa, monomer
The experiment in a line: cytochrome c reduction at […] nm, Michaelis-Menten fit. The conditions noted are these: co-substrate cytochrome c at saturation (50 µM); potassium phosphate pH 7.5; room temperature; apparent Km. Type of assay: biochemical, Planiliza klunzingeri.

The term Km denotes the concentration of substrate that gives half-maximal velocity.

Structures are written as SMILES.

`NC(=O)C1=CN([C@@H]2O[C@H](COP(=O)(O)OP(=O)(O)OC[C@H]3O[C@@H](n4cnc5c(N)ncnc54)[C@H](OP(=O)(O)O)[C@@H]3O)[C@@H](O)[C@H]2O)C=CC1` [NADPH]: the Km was 7.26 ± 0.2 µM.

Source of the values: PMC9964268, “A Novel, Highly Potent NADPH-Dependent Cytochrome P450 Reductase from Waste Liza klunzingeri Liver” (Marine Drugs, 2023).
